Experimental data taken from patent US6444698B1, “Application of 2,3,7,8-tetrachlorodibenzo-para-dioxin (TCDD) as a promoter blocker of cancer” (priority 1998, dated 2002).
Values joined by “and” are separate entries in the source; they are usually repeats but may differ in a detail not shown here. Equal values may be shown once. “Also recorded” adds a separate entry of the source. Read-outs that look alike come from different tables or passages of the source.

Experiments:
[1] = tritiated TCDD ingested in corn oil, volunteer; cited from earlier work
[2] = tested on: Operation Ranch Hand (ORH) airmen; assay: Operation Ranch Hand (ORH) cancer incidence and body burden analysis; assay type: in vivo, human
Text: (§1) In addition to published and unpublished epidemiology data from the NIOSH Report (Fingerhut et al. (1990)), additional NIOSH Life Table records (LT20406 (1990)), and the Steenland et al. article (1999), the Inventor relies on Bertazzi et al.'s (Epidemiol. 4, 398-406 (1993)) cancer incidence data presentation on a residential population of men and women exposed to the lowest levels of TCDD as a result of a chemical plant explosion near Seveso, Italy, and the Inventor's own analysis of cancer incidence and body burden data in the Operation Ranch Hand (ORH) airmen exposed to TCDD as a result of service in Southeast Asia during the Vietnam War. None of the NIOSH and Seveso papers cited above claim that TCDD acts as an anti-carcinogen. The Air Force Scientists charged with developing the ORH Study also fail to observe TCDD as an anti-carcinogen. Ketchum et al. Amer. J. Epidem. 149, 630-639 (1999).
The ORH cancer incidence data collected over 30 years has particular value, because one may compute the cancer incidence effects associated with military service in Southeast Asia in internal cohorts unexposed or virtually unexposed to TCDD and distinguish them from an internal cohort of airmen exposed to TCDD within a well calibrated body burden range.
Kayajanian, Ecotox. Environ. Safety 46, 103-109 (2000); and Kayajanian, Ecotox. Environ. Safety (In press, 2001).
Kayajanian (2000)(In press, 2001). One standout cancer reduction is associated with an even lower TCDD body burden level: prostate cancer in black veterans is highest at non detect TCDD levels of less than 1.25 ppt; it is reduced at body burdens between 1.25 and 4.0 ppt, and lowest above 4.00 ppt, The pattern of prostate cancer reduction in black men is significant. Kayajanian, (In press, 2001).

[3] = tested on: male workers in 12 chemical plants; assay: NIOSH Study of chemical plant workers, cancer occurrence; assay type: in vivo, human
Text: In 1994, EPA sought to regulate TCDD as a “probable” human carcinogen, using a population of 5280 male workers in 12 chemical plants, each of whom was exposed to contaminant levels of TCDD and some mix of 1000 unidentified other chemicals. Fingerhut et al. (1990). Fingerhut compared the cancer incidence in the plant workers to that expected in a national reference, and EPA concluded all the cancer incidence increases noted by Fingerhut were caused by the TCDD exposure and none were caused by exposures to other chemicals. U.S. EPA (1994). EPA's Science Advisory Board rejected the Agency's TCDD cancer claims. U.S. EPA Science Advisory Board, Review of Draft Documents: A Second Look at Dioxin (1995).
(§2) The Seveso Study (Bertazzi et al. (1993)) is a report on cancer incidence and cancer incidence changes in the first ten years following the population's exposure to TCDD and other chemicals. Over the course of these ten years, one expects not to register the carcinogenic effects of any chemicals acting as cancer initiators and to include any effects attributable to TCDD discernible within ten years, like promotion or promotion blocking. The first ten years of the lifetime NIOSH Study offer the same advantage. Fingerhut et al. (1990).
One of the plants (Midland) in the NIOSH Report has workers who reproduce the signature of individual cancer reductions and increases the Inventor observed in Seveso low exposure men: reductions in lung, primary liver (measured in Midland as liver) and multiple myeloma, which collectively are significant; and increases in STS and NHL, which individually are significant. The Seveso signature pattern of cancer incidence changes is present even though workers in Midland and the other 11 chemical plants were exposed to confounding chemicals which might have masked or diminished the extent of pattern confirmation. LT20406 (1990). From Steenland et al. (1999), one can estimate the TCDD level associated with the Midland plant wotkers as 105 ppt above background, or between 105 and 115 ppt.
The specific and total cancer reductions noted in the NIOSH, Seveso, and ORH studies can be tied to specific dioxin body burden levels measured in serum. Reading Steenland et al. (1999) and Fingerhut et al. (1990) together, one can estimate a range from 3 to 10,000 ppt extra TCDD in serum in eight of the 12 NIOSH plante worker cohorts. […] Midland workers, who show the Seveso pattern of reductions of specific cancers, had 105 ppt TCDD above background, which is assumed to be 0 to 10 ppt.

[4] = tested on: residential population of men and women; conditions: cited from earlier work
mouse skin = conditions: cited from earlier work
[5] = tested on: male workers in 12 chemical plants; conditions: most highly TCDD-exposed members of the NIOSH workforce (Steenland 1999); cited from earlier work
[6] = molecular target: T1, aryl hydrocarbon (Ah) receptor (Homo sapiens, UniProt P35869); conditions: cited from earlier work
T1 sequence (P35869 11-848): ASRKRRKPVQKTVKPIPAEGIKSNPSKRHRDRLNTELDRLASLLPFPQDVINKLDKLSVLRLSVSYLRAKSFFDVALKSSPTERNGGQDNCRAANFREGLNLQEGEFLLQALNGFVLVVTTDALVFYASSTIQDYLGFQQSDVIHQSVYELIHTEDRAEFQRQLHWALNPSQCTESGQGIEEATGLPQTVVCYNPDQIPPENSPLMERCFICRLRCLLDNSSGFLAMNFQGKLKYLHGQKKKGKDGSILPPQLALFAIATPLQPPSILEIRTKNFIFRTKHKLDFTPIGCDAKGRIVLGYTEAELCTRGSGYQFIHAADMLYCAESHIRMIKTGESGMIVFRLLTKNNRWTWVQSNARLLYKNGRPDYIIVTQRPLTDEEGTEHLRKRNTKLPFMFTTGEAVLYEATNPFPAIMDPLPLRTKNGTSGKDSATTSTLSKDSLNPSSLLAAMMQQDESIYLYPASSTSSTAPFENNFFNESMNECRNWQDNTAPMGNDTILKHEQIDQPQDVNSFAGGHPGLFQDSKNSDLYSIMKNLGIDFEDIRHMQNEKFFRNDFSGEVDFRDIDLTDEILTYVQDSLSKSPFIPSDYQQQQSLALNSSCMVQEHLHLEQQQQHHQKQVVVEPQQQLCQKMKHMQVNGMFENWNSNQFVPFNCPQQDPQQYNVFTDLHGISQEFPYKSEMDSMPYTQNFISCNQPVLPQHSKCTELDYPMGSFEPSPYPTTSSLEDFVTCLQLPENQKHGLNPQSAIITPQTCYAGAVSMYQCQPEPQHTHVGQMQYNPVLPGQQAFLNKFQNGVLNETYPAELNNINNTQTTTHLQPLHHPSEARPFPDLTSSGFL

[7] = tested on: Operation Ranch Hand (ORH) airmen; conditions: cited from earlier work
[8] = tested on: residential population of men and women; assay: Seveso Study, cancer incidence in residential population exposed to TCDD; assay type: in vivo, human
Text: as §1, §2
For a limited number of narrow cancer classifications, Bertazzi et al. (1993) has provided cancer incidence data stratified in five year intervals both for publication and as a courtesy to the Inventor. Kayajanian, Ecotox. Environ. Safety 42, 103-109 (1999). Fingerhut et al. (1990) also published five year cancer occurrence observations for total cancers. […] This pattern of cancer incidence reduction in the second five year interval is what one would expect if TCDD acted as a promoter blocker of the enumerated individual cancer classifications and a sufficient number of other cancers to generate a significant total cancer incidence reduction.
The significant individual and total cancer reductions the Inventor noted from the Seveso data, whether stratified or not (Bertazzi et al. (1993)) are associated with median levels of 48 ppt TCDD. Bertazzi et al., Amer. J. Epidem. 153, 1031-1043 (2001). Measurement of TCDD levels include both men and women.

industrial cohorts = conditions: cited from earlier work
Sprague-Dawley rats [9] = assay: Kociba lifetime rodent feeding study; assay type: in vivo, rat
Procedure: EPA has sought to regulate dioxin as a carcinogen on three occassions. […] Kociba et al., Toxicol. Appl. Pharmacol. 46, 279-303 (1978). […] Kociba et al. (1978); U.S. EPA (1985); and U.S. EPA (1994).
Kociba et al, (1978); U.S. EPA (1985 and 1994).
To develop the Invention further, cross species comparisons are performed when no second epidemiology report is available to test the effect of TCDD exposure on women. […] Kayajanian, Regul. Toxicol. Pharmacol. 26, 134-137 (1997).

Sprague-Dawley rats [10] = conditions: cited from earlier work
[11] = low exposure cohorts, second five years compared to first five years

Clc1cc2c(cc1Cl)Oc1cc(Cl)c(Cl)cc1O2 [TCDD, 2,3,7,8-tetrachlorodibenzo-para-dioxin]
label retention [1]: 87%
total cancers other than skin ([2]; all airmen, 50 ppt (mean body burden 50-100 ppt)): significant cancer incidence reductions; also recorded: significant non skin cancer reductions
prostate cancer in black veterans ([2]; body burdens above 4.00 ppt): lowest
prostate cancer in black veterans ([2]; body burdens between 1.25 and 4.0 ppt): reduced
skin cancer incidence ([2]; non black airmen, 100 ppt (mean body burden 50-100 ppt)): significant cancer incidence reductions; also recorded: significant skin cancer reductions
prostate cancer in black veterans ([2]; non detect TCDD levels of less than 1.25 ppt): highest
mean TCDD body burden levels at which significant cancer incidence reductions are observed ([2]; skin and total cancers other than skin): 50-100 ppt
lung, primary liver (measured as liver) and multiple myeloma cancers ([3]; Midland plant workers, collectively significant): reductions
STS and NHL ([3]; Midland plant workers, individually significant): increases
TCDD level associated with the Midland plant workers ([3]; including background): 105-115 ppt
incidence of total cancers in men ([3]; years 6-10 compared to years 1-5, Fingerhut Report): significantly less
total cancers ([4]; Italian men from Seveso, pooled two highest exposed cohorts, over twenty years (Bertazzi 2001)): significant increase
median TCDD level associated with significant individual and total cancer reductions ([4]; men and women): 48 ppt and 48.0 ppt
artificially elevated skin cancer incidence (mouse skin; TCDD administered simultaneously with or a day after the skin cancer initiation step): No reduction
artificially elevated skin cancer incidence (mouse skin; very high single dose administered one to five days prior to initiation, several mice strains): significantly reduces
total cancers [5]: significant increase
binding to the aryl hydrocarbon (Ah) receptor [6]: preferentially binds
mean TCDD level of airmen when they left Vietnam [7]: 195.7 ppt
lung and multiple myeloma cancer incidence in men ([8]; compared to the outside reference over the entire ten year period): significantly or notably reduced
incidence of soft tissue sarcoma (STS) and non Hodgkins lymphoma (NHL) ([8]; low exposure adults (men plus women), second five years compared to first five years): significantly increased
corpus uteri cancer incidence in women [8, 11]: significant cancer incidence reduction
primary liver cancer incidence in men [8, 11]: significant cancer incidence reduction
total cancer incidence in women [8, 11]: significant cancer incidence reduction
percentagewise cancer incidence reduction, men versus women ([8]; lowest study exposure): to a greater extent in men than in women
total cancer mortality (industrial cohorts; most highly TCDD-exposed German herbicide chemical plant workers (Flesch-Janys 1995)): significant increase
total cancers (industrial cohorts; separate studies of different industrial cohorts (Zober 1990, Manz 1991)): total cancer increase
total cancers (Sprague-Dawley rats [9]; each sex, low and mid dose TCDD levels of 540 and 5100 ppt in liver tissue): significant reduction
total cancers (Sprague-Dawley rats [9]; low dose female rats, p<0.01): significantly reduced
uterine cancers (Sprague-Dawley rats [9]; low dose female rats, p<0.06): significantly reduced
liver cancer incidence (Sprague-Dawley rats [9]; low dose, each sex, significant in the males): reduction
percentagewise cancer incidence reduction, male versus female rats (Sprague-Dawley rats [9]; lowest study exposure): in male rats to a greater extent than in female rats
cancers at multiple tissue sites and overall (Sprague-Dawley rats [9]; male and female rats, TCDD body burdens of 540 and 5100 ppt): reduction
hepatocarcinogenicity (Sprague-Dawley rats [10]; body burden level 25,400 ppt (Safe citing Kociba)): very hepatocarcinogenic
liver cancer incidence (Sprague-Dawley rats [10]; high dose female Sprague-Dawley rats fed TCDD over a lifetime): significantly elevated
mammary and uterine cancers (Sprague-Dawley rats [10]; high dose female, body burden level 25,400 ppt (Safe citing Kociba)): anti-carcinogenic
